From US9533977B2, “Oxazolidinone derivative as CETP inhibitor, its preparation method, and pharmaceutical composition comprising the same” (DONG-A ST CO., LTD., priority 2013, dated 2017)

The compounds below were run against T1, CETP (Homo sapiens, UniProt P11597) (assay: Inhibitory activity against CETP in human plasma (Roar CETP activity kit, fluorescence)). Conditions: plasma from healthy men diluted 1:10 in assay buffer, 37° C., 3 hrs, fluorescence 465/535 nm; read-out: IC50, Inhibition of CETP Activity in Human Plasma.
T1 construct: from tissue; host or cells: human plasma from healthy men
T1 sequence (P11597 18-493): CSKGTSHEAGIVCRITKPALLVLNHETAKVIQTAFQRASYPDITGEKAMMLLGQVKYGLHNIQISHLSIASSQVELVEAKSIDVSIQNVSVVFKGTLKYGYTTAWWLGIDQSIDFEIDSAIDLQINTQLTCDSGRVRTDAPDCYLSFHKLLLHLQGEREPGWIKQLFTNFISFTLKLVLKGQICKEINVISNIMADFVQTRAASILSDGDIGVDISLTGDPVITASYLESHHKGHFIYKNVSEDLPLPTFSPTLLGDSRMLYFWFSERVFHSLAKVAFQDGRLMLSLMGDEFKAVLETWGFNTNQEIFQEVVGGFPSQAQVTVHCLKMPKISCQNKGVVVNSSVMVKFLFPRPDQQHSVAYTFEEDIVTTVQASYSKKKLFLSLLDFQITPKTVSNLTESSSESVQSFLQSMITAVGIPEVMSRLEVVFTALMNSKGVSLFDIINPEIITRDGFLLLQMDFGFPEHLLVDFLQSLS
Type: biochemical
Procedure: A CETP activity kit (#RB-CETP) was purchased from Roar […], Inc. A donor and an acceptor (each, 4 ul), a 10× assay buffer (177 ul), and each of dilutions of test compounds in dimethylsulfoxide (DMSO, Sigma-Aldrich) (0.01 nM˜10000 nM) were added to each well of black round-bottom 96-well plates (Corning #3792). Plasma samples from healthy men were diluted in the assay buffer (1:10=plasma:assay buffer), and added to each well. The plates were sealed with a sealing film (Sigma-Aldrich, #Z369659), and incubated in a 37° C. incubator microplate shaker (#SLST-3, Seolin Bio) for 3 hrs. After removal of the sealing film, fluorescence was read on Spectra Max Gemini EM (Molecular devices) with an excitation wavelength of 465 nm and an emission wavelength of 535 nm. Measurements were calculated according to the following formula. Calculated value=(Fluorescence Intensity with both compound and plasma−Fluorescence Intensity with compound but without plasma)/(Fluorescence Intensity with plasma but without compound−Fluorescence Intensity with neither compound nor plasma)
From the calculated value, a sigmoidal curve (y=start+(end-start)x^n/k^n+x^n) was drawn using Origin Software (OriginLab Corporation, ver. 8.0724) to obtain IC50 values.

| IC50 [nM] | Compound |
| --- | --- |
| 100 | CCN(c1ncc(C(F)(F)F)cc1CN1C(=O)O[C@H](c2cc(C(F)(F)F)cc(C(F)(F)F)c2)[C@@H]1C)C1CC[S+]([O-])CC1 (stereo partly drawn) [Example 26, (4S,5R)-5-[3,5-bis(trifluoromethyl)phenyl]-4-methyl-3-({[2-(ethyl)(1-oxidotetrahydro-2H-thiopyran-4-yl)amino]-5-(trifluoromethyl)pyridin-3-yl}methyl)-oxazolidin-2-one] |
| 3.84 | CCN(C[C@H]1CC[C@H](CC(=O)O)CC1)c1ncc(-c2sccc2OC)nc1CN1C(=O)OC(c2cc(C(F)(F)F)cc(C(F)(F)F)c2)[C@@H]1C (stereo partly shown) [Example 109] |
| 26.9 | CCN(c1ncc(-c2ccccc2)cc1CN1C(=O)O[C@H](c2cc(C(F)(F)F)cc(C(F)(F)F)c2)[C@@H]1C)C1CCOCC1 [Example 45, (4S,5R)-5-[3,5-bis(trifluoromethyl)phenyl]-4-methyl-3-({[2-(ethyl)(tetrahydro-2H-pyran-4-yl)amino]-5-phenylpyridin-3-yl}methyl)-oxazolidin-2-one] |
| 87.4 | CCN(c1ncc(-c2cccn2C(=O)OC(C)(C)C)cc1CN1C(=O)O[C@@H](c2cc(C(F)(F)F)cc(C(F)(F)F)c2)[C@@H]1C)C1CCCCC1 [Example 76, t-butyl 2-{5-({(4S,5S)-5-[3,5-bis(trifluoromethyl)phenyl]-4-methyl-2-oxo-oxazolidin-3-yl}methyl)-6-[(cyclohexyl)(ethyl)amino]pyridin-3-yl}-1H-pyrrole-1-carboxylate] |
| 3.8 | CCN(C[C@H]1CC[C@H](CC(=O)O)CC1)c1ncc(-c2cccn2C)nc1CN1C(=O)OC(c2cc(C(F)(F)F)cc(C(F)(F)F)c2)[C@@H]1C (stereo partly shown) [Example 104] |
| 37 | CCN(CC1CCC(CC(=O)O)CC1)c1ncc(-c2cc(C)nn2C)nc1CN1C(=O)OC(c2cc(C(F)(F)F)cc(C(F)(F)F)c2)C1C [Example 107, trans-4-({[3-({(4S,5S)-5-[3,5-bis(trifluoromethyl)phenyl]-4-methyl-2-oxazolidin-3-yl}methyl)-5-(1,3-dimethyl-1H-pyrazol-5-yl)pyrazin-2-yl]{[N-(ethyl)aminomethyl]cyclohexyl)}acetic acid] |
| 114 | CCN(c1ncc(C(F)(F)F)cc1CN1C(=O)O[C@H](c2cc(C(F)(F)F)cc(C(F)(F)F)c2)[C@@H]1C)C1CCC2(CC1)OCCO2 [Example 21, (4S,5R)-5-[3,5-bis(trifluoromethyl)phenyl]-4-methyl-3-({[2-(ethyl)(1,4-dioxaspiro[4.5]decan-8-yl)amino]-5-trifluoromethylpyridin-3-yl}methyl)-oxazolidin-2-one] |
| 9.9 | (4S,5R)-5-[3,5-bis(trifluoromethyl)phenyl]-4-methyl-3-({[2-(ethyl)(cyclohexyl)amino]-5-(3-methoxy-thiophen-2-yl)pyridin-3-yl}methyl)-oxazolidin-2-one [Example 70] |
| 31.1 | CCN(c1ncc(-c2ccc(C)o2)cc1CN1C(=O)O[C@H](c2cc(C(F)(F)F)cc(C(F)(F)F)c2)[C@@H]1C)C1CCCCC1 [Example 75, (4S,5R)-5-[3,5-bis(trifluoromethyl)phenyl]-4-methyl-3-({[2-(ethyl)(cyclohexyl)amino]-5-(2-methyl-furan-5-yl)pyridin-3-yl}methyl)-oxazolidin-2-one] |
| 6.3 | CCN(c1ncc(C(F)(F)F)cc1CN1C(=O)O[C@H](c2cc(C(F)(F)F)cc(C(F)(F)F)c2)[C@@H]1C)C1CCOCC1 [Example 7, (4S,5R)-5-[3,5-bis(trifluoromethyl)phenyl]-4-methyl-3-({[2-(ethyl)(tetrahydro-2H-pyran-4-yl)amino]-5-(trifluoromethyl)pyridin-3-yl}methyl)-oxazolidin-2-one] |
| 46.3 | CCN(c1ncc(-c2nnnn2C)cc1CN1C(=O)O[C@H](c2cc(C(F)(F)F)cc(C(F)(F)F)c2)[C@@H]1C)C1CCCCC1 [Example 66, (4S,5R)-5-[3,5-bis(trifluoromethyl)phenyl]-4-methyl-3-({[2-(ethyl)(cyclohexyl)amino]-5-(1-methyl-1H-tetrazol-5-yl)pyridin-3-yl}methyl)-oxazolidin-2-one] |
| 37.4 | CCN(CC1CCC(CC(=O)O)CC1)c1ncc(-c2nccs2)nc1CN1C(=O)OC(c2cc(C(F)(F)F)cc(C(F)(F)F)c2)C1C [Example 112, trans-4-({[3-({(4S,5S)-5-[3,5-bis(trifluoromethyl)phenyl]-4-methyl-2-oxazolidin-3-yl}methyl)-5-(thiazol-2-yl)pyrazin-2-yl]{[N-(ethyl)aminomethyl]cyclohexyl)}acetic acid] |
| 16.7 | Cc1noc(C)c1-c1cnc(N(C)C2CCCCC2)c(CN2C(=O)O[C@H](c3cc(C(F)(F)F)cc(C(F)(F)F)c3)[C@@H]2C)c1 [Example 57, (4S,5R)-5-[3,5-bis(trifluoromethyl)phenyl]-4-methyl-3-({[2-(methyl)(cyclohexyl-4-yl)amino]-5-(3,5-dimethylisoxazol-4-yl)pyridin-3-yl}methyl)-oxazolidin-2-one] |
| 224 | CCN(c1ncc(-c2c(C)n[nH]c2C)cc1CN1C(=O)O[C@H](c2cc(C(F)(F)F)cc(C(F)(F)F)c2)[C@@H]1C)C1CCCCC1 [Example 65, (4S,5R)-5-[3,5-bis(trifluoromethyl)phenyl]-4-methyl-3-({[2-(ethyl)(cyclohexyl-4-yl)amino]-5-(3,5-dimethyl-1H-pyrazol-4-yl)pyridin-3-yl}methyl)-oxazolidin-2-one] |
| 30.4 | CCN(c1ncc(-c2cscc2C)cc1CN1C(=O)O[C@H](c2cc(C(F)(F)F)cc(C(F)(F)F)c2)[C@@H]1C)C1CCCCC1 [Example 86, (4S,5R)-5-[3,5-bis(trifluoromethyl)phenyl]-4-methyl-3-({[2-(ethyl)(cyclohexyl)amino]-5-(3-methyl-thiophen-4-yl)pyridin-3-yl}methyl)-oxazolidin-2-one] |
| 20 | CCN(c1ncc(C(F)(F)F)cc1CN1C(=O)O[C@H](c2cc(C(F)(F)F)cc(C(F)(F)F)c2)[C@@H]1C)C1CCN(C(=O)OC)CC1 [Example 35, methyl 4-{[3-({(4S,5R)-5-[3,5-bis(trifluoromethyl)phenyl]-4-methyl-2-oxo-oxazolidin-3-yl}methyl)-5-(trifluoromethyl)pyridin-2-yl](ethyl)amino}piperidine-1-carboxylate] |
| 492 | CCN(c1ncc(C(F)(F)F)cc1CN1C(=O)O[C@H](c2cc(C(F)(F)F)cc(C(F)(F)F)c2)[C@@H]1C)C1CCN(CC(=O)O)CC1 [Example 39, 2-(4-{[3-({(4S,5R)-5-[3,5-bis(trifluoromethyl)phenyl]-4-methyl-2-oxo-oxazolidin-3-yl}methyl)-5-(trifluoromethyl)pyridin-2-yl](ethyl)amino}piperidin-1-yl)acetic acid] |
| 430 | CCN(c1ncc(C(F)(F)F)cc1CN1C(=O)O[C@H](c2cc(C(F)(F)F)cc(C(F)(F)F)c2)[C@@H]1C)C1CCN(C(=O)OC(C)(C)C)CC1 [Example 27, t-butyl 4-{[3-({(4S,5R)-5-[3,5-bis(trifluoromethyl)phenyl]-4-methyl-2-oxo-oxazolidin-3-yl}methyl)-5-(trifluoromethyl)pyridin-2-yl](ethyl)amino}piperidine-1-carboxylate] |

| Compound | IC50 [nM] |
| --- | --- |
| (4S,5S)-5-[3,5-bis(trifluoromethyl)phenyl]-4-methyl-3-({[2-(methyl)(tetrahydro-2H-pyran-4-yl)amino]-5-(trifluoromethyl)pyridin-3-yl}methyl)-oxazolidin-2-one [Example 6] | 49 |
